For this data set the following is noted: 298.15 K; 101.33 kPa; Liquid; Vibrating tube method.

± gives the expanded uncertainty stated by the source.

For `CCC(O)CC` [3-pentanol], the mass density was 815.8 ± 1.7 kg/m3.
The figure for `C[N+](=O)[O-]` [nitromethane] is 1131.1 ± 2.3 kg/m3.

By mass density is commonly meant the mass of a sample divided by its volume.
